Measured values as given in patent US20250223268A1, “4-Methylsulfonylbenzamide Compound, Preparation Method, Herbicidal Composition And Use” (Jiangsu Flag Chemical Industry Co., Ltd., priority 2022, published 2025).

Columns and labels:
Test in all cases: Greenhouse herbicidal activity assay, post-emergence
Format in all cases: in vivo
Conditions in all cases: Post-emergence test, rate 150 g a.i./hm^2, grade by fresh weight inhibition rate
Cyperus iria = system: Cyperus iria
Summary of the method: (§1)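 Foliar spray at 3-6 leaves; pot-grown in nutrient soil in growth chamber; air-dried post-spray. Read-out at 14-21 d: fresh weight inhibition, graded A (≥80% to 100%) down to E (<20%); NT = not tested.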

Digitaria sanguinalis = system: Digitaria sanguinalis
Summary of the method: as §1

Echinochloa crusgalli = system: Echinochloa crusgalli
Summary of the method: as §1

Eclipta prostrata = system: Eclipta prostrata
Summary of the method: as §1

Leptochloa chinensis = system: Leptochloa chinensis
Summary of the method: as §1

Row | Structure (SMILES) | Control efficacy grade, Cyperus iria (Cyperus iria) | Control efficacy grade, Digitaria sanguinalis (Digitaria sanguinalis) | Control efficacy grade, Echinochloa crusgalli (Echinochloa crusgalli) | Control efficacy grade, Eclipta prostrata (Eclipta prostrata) | Control efficacy grade, Leptochloa chinensis (Leptochloa chinensis) | pest or weed control at 150 g/ha (Cyperus iria; Cyperus iria, read-out: Control efficacy grade, Cyperus iria) [%] | pest or weed control at 150 g/ha (Digitaria sanguinalis; Digitaria sanguinalis, read-out: Control efficacy grade, Digitaria sanguinalis) [%] | pest or weed control at 150 g/ha (Echinochloa crusgalli; Echinochloa crus-galli, read-out: Control efficacy grade, Echinochloa crusgalli) [%] | pest or weed control at 150 g/ha (Eclipta prostrata; Eclipta prostrata, read-out: Control efficacy grade, Eclipta prostrata) [%] | pest or weed control at 150 g/ha (Leptochloa chinensis; Dinebra chinensis, read-out: Control efficacy grade, Leptochloa chinensis) [%]
1 | CC(C)c1nnc(NC(=O)c2ccc(S(C)(=O)=O)c([S+]([O-])C3CC3)c2Cl)o1 (racemic) [Compound 3-536] | A (Fresh weight inhibition rate≥80% to 100%) | B (Fresh weight inhibition rate≥260% to <80%) | A (Fresh weight inhibition rate≥80% to 100%) | A (Fresh weight inhibition rate≥80% to 100%) | A (Fresh weight inhibition rate≥80% to 100%) | – | – | – | – | –
2 | Cn1nnnc1NC(=O)c1ccc(S(C)(=O)=O)c(SC2CC2)c1Cl [Compound 1-32] | A (Fresh weight inhibition rate≥80% to 100%) | A (Fresh weight inhibition rate≥80% to 100%) | A (Fresh weight inhibition rate≥80% to 100%) | A (Fresh weight inhibition rate≥80% to 100%) | A (Fresh weight inhibition rate≥80% to 100%) | – | – | – | – | –
3 | C=CC[S+]([O-])c1c(S(C)(=O)=O)ccc(C(=O)Nc2nnc(CC)o2)c1Cl (racemic) [Compound 3-455] | A (Fresh weight inhibition rate≥80% to 100%) | A (Fresh weight inhibition rate≥80% to 100%) | A (Fresh weight inhibition rate≥80% to 100%) | A (Fresh weight inhibition rate≥80% to 100%) | A (Fresh weight inhibition rate≥80% to 100%) | – | – | – | – | –
4 | Cc1nnc(NC(=O)c2ccc(S(C)(=O)=O)c(SCCC#N)c2Cl)o1 [Compound 3-197] | A (Fresh weight inhibition rate≥80% to 100%) | A (Fresh weight inhibition rate≥80% to 100%) | A (Fresh weight inhibition rate≥80% to 100%) | A (Fresh weight inhibition rate≥80% to 100%) | A (Fresh weight inhibition rate≥80% to 100%) | – | – | – | – | –
5 | CCc1nnc(NC(=O)c2ccc(S(C)(=O)=O)c(SCC3CC3)c2Cl)o1 [Compound 3-414] | A (Fresh weight inhibition rate≥80% to 100%) | A (Fresh weight inhibition rate≥80% to 100%) | A (Fresh weight inhibition rate≥80% to 100%) | A (Fresh weight inhibition rate≥80% to 100%) | A (Fresh weight inhibition rate≥80% to 100%) | – | – | – | – | –
6 | CS(=O)(=O)c1ccc(C(=O)Nc2nnco2)c(Cl)c1SC1CCC1 [Compound 3-308] | A (Fresh weight inhibition rate≥80% to 100%) | A (Fresh weight inhibition rate≥80% to 100%) | A (Fresh weight inhibition rate≥80% to 100%) | A (Fresh weight inhibition rate≥80% to 100%) | A (Fresh weight inhibition rate≥80% to 100%) | – | – | – | – | –
7 | CCC(C)[S+]([O-])c1c(S(C)(=O)=O)ccc(C(=O)Nc2nnc(C3CC3)o2)c1Cl (mixture of isomers) [Compound 3-633] | A (Fresh weight inhibition rate≥80% to 100%) | A (Fresh weight inhibition rate≥80% to 100%) | A (Fresh weight inhibition rate≥80% to 100%) | A (Fresh weight inhibition rate≥80% to 100%) | A (Fresh weight inhibition rate≥80% to 100%) | – | – | – | – | –
8 | CCC[S+]([O-])c1c(S(C)(=O)=O)ccc(C(=O)Nc2nnc(CC)o2)c1Cl (racemic) [Compound 3-384] | A (Fresh weight inhibition rate≥80% to 100%) | A (Fresh weight inhibition rate≥80% to 100%) | A (Fresh weight inhibition rate≥80% to 100%) | A (Fresh weight inhibition rate≥80% to 100%) | A (Fresh weight inhibition rate≥80% to 100%) | – | – | – | – | –
9 | Cn1nnnc1NC(=O)c1ccc(S(C)(=O)=O)c([S+]([O-])C2CCCCC2)c1Cl (racemic) [Compound 1-48] | A (Fresh weight inhibition rate≥80% to 100%) | A (Fresh weight inhibition rate≥80% to 100%) | A (Fresh weight inhibition rate≥80% to 100%) | A (Fresh weight inhibition rate≥80% to 100%) | A (Fresh weight inhibition rate≥80% to 100%) | – | – | – | – | –
10 | CCC[S+]([O-])c1c(S(C)(=O)=O)ccc(C(=O)Nc2nnnn2C)c1Cl (racemic) [Compound 1-2, 2-chloro-N-(1-methyl-1H-tetrazol-5-yl)-4-(methylsulfonyl)-3-(propylsulfinyl)benzamide] | – | – | – | – | – | 80 to 100 | 80 to 100 | 80 to 100 | 80 to 100 | 80 to 100
11 | Cn1ncnc1NC(=O)c1ccc(S(C)(=O)=O)c([S+]([O-])CC2CC2)c1Cl (single isomer, unassigned) [Compound 2-29] | A (Fresh weight inhibition rate≥80% to 100%) | A (Fresh weight inhibition rate≥80% to 100%) | A (Fresh weight inhibition rate≥80% to 100%) | A (Fresh weight inhibition rate≥80% to 100%) | A (Fresh weight inhibition rate≥80% to 100%) | – | – | – | – | –
12 | CC(C)c1nnc(NC(=O)c2ccc(S(C)(=O)=O)c([S+]([O-])CC(F)(F)F)c2Cl)o1 (racemic) [Compound 3-556] | A (Fresh weight inhibition rate≥80% to 100%) | B (Fresh weight inhibition rate≥260% to <80%) | B (Fresh weight inhibition rate≥260% to <80%) | A (Fresh weight inhibition rate≥80% to 100%) | A (Fresh weight inhibition rate≥80% to 100%) | – | – | – | – | –
13 | Cn1ncnc1NC(=O)c1ccc(S(C)(=O)=O)c([S+]([O-])C2CCCCC2)c1Cl (racemic) [Compound 2-48] | A (Fresh weight inhibition rate≥80% to 100%) | A (Fresh weight inhibition rate≥80% to 100%) | A (Fresh weight inhibition rate≥80% to 100%) | A (Fresh weight inhibition rate≥80% to 100%) | A (Fresh weight inhibition rate≥80% to 100%) | – | – | – | – | –
14 | CS(=O)(=O)c1ccc(C(=O)Nc2nnco2)c(Cl)c1[S+]([O-])C1CCCC1 (racemic) [Compound 3-314] | A (Fresh weight inhibition rate≥80% to 100%) | A (Fresh weight inhibition rate≥80% to 100%) | A (Fresh weight inhibition rate≥80% to 100%) | A (Fresh weight inhibition rate≥80% to 100%) | A (Fresh weight inhibition rate≥80% to 100%) | – | – | – | – | –
15 | CCCS(=O)(=O)c1c(S(C)(=O)=O)ccc(C(=O)Nc2ncnn2C)c1Cl [Compound 2-5] | A (Fresh weight inhibition rate≥80% to 100%) | B (Fresh weight inhibition rate≥260% to <80%) | B (Fresh weight inhibition rate≥260% to <80%) | A (Fresh weight inhibition rate≥80% to 100%) | A (Fresh weight inhibition rate≥80% to 100%) | – | – | – | – | –
16 | Cc1nnc(NC(=O)c2ccc(S(C)(=O)=O)c(SCC(F)(F)F)c2Cl)o1 [Compound 3-97] | A (Fresh weight inhibition rate≥80% to 100%) | A (Fresh weight inhibition rate≥80% to 100%) | A (Fresh weight inhibition rate≥80% to 100%) | A (Fresh weight inhibition rate≥80% to 100%) | A (Fresh weight inhibition rate≥80% to 100%) | – | – | – | – | –
17 | CS(=O)(=O)c1ccc(C(=O)Nc2nnco2)c(Cl)c1[S+]([O-])CCCl (racemic) [Compound 3-379] | A (Fresh weight inhibition rate≥80% to 100%) | A (Fresh weight inhibition rate≥80% to 100%) | A (Fresh weight inhibition rate≥80% to 100%) | A (Fresh weight inhibition rate≥80% to 100%) | A (Fresh weight inhibition rate≥80% to 100%) | – | – | – | – | –
18 | CCC[S+]([O-])c1c(S(C)(=O)=O)ccc(C(=O)Nc2nnnn2C)c1Cl (single isomer, unassigned) [Compound 1-4] | A (Fresh weight inhibition rate≥80% to 100%) | A (Fresh weight inhibition rate≥80% to 100%) | A (Fresh weight inhibition rate≥80% to 100%) | A (Fresh weight inhibition rate≥80% to 100%) | A (Fresh weight inhibition rate≥80% to 100%) | – | – | – | – | –
